According to US8192753B2, “pH-sensitive cationic lipids, and liposomes and nanocapsules containing the same” (Marina Biotech, Inc., priority 2002, dated 2012):

Assay: Determination of pKa values by titration in 0.5% TRITON-X 100
Conditions: lipid in 0.5% TRITON-X 100 in water, titrated with 20 mM NaOH from pH 3.0

In the case of “4-(2-aminoethyl)morpholine-di-palmitoylglycerol succinate [#60]”, the pKa is reported as 7.2.
